The text below walks through data of article PMC4879371, “Antitrypanosomal Activities and Mechanisms of Action of Novel Tetracyclic Iridoids from Morinda lucida Benth” (Antimicrobial Agents and Chemotherapy, 2016).

Each structure is given as a SMILES string.

This test deals with GUTat 3.1 strain of the bloodstream form of T. brucei brucei. The test can be described thus: alamarBlue in vitro viability test for trypanosome parasites. It counts as cell-based. As to conditions: Trypanosoma brucei, 48 h of incubation, read-out: IC50, antitrypanosomal activity. Here is the method:
The GUTat 3.1 strain of the bloodstream form of T. brucei brucei parasites was used in this study. Parasites were cultured in vitro according to the conditions established previously ([36]). Parasites were used when they reached a confluent concentration of 1 × 10^6 parasites/ml. Estimation of parasitemia was done with the Neubauer counting chamber. Parasites were diluted to a concentration of 3 × 10^5 parasites/ml with HM1-9 medium and were used for the various experiments.
The alamarBlue assay (Life Technologies, USA) was carried out on treated or untreated trypanosome parasites to ascertain their viability. The assay was performed in a 96-well plate following the manufacturer's instructions with modification. Briefly, 1.5 × 10^4 parasites were seeded with varied concentrations of plant material (extracts, fractions, or compounds) ranging from 0.78 μg/ml to […]. Final concentrations of EtOH and dimethyl sulfoxide (DMSO) were kept at <1% and 0.1%, respectively. After incubation of parasites with or without plant extracts or compounds for 24 h at 37°C in 5% CO2, 10% alamarBlue dye was added, and the parasites were incubated another 24 h in darkness. After a total of 48 h, the plate was read for absorbance at 540 nm using the Tecan Sunrise Wako spectrophotometer. The trend curve was drawn to obtain a 50% inhibitory concentration (IC50) of each plant material (extracts, fractions, and compounds).
In general terms: Resazurin is reduced to fluorescent resorufin, in cell work by metabolically active cells.
A word on the IC50: it is the midpoint of a concentration-inhibition curve. In the case of `COc1c2cc(C=O)ccc2c(OC)c2c(O)cccc12` [oruwalol], the IC50 was found to be 518 µM. With `CC1(C)CC[C@]2(C(=O)O)CC[C@]3(C)C(=CC[C@@H]4[C@@]5(C)CC[C@H](O)C(C)(C)[C@@H]5CC[C@]43C)[C@@H]2C1` [oleanolic acid], the IC50 was 13.7 µM. With `C[C@H]1[C@H](C)CC[C@]2(C(=O)O)CC[C@]3(C)C(=CC[C@@H]4[C@@]5(C)CC[C@H](O)C(C)(C)[C@@H]5CC[C@]43C)[C@H]12` [ursolic acid], the IC50 is 15.4 µM.
